This is an account of results in patent US9249453B2, “Method for identifying a malodor inhibitor” (Kao Corporation, priority 2011, dated 2016).

Format in all cases: cell-based
One test deals with T1, OR2W1 (Homo sapiens, UniProt Q9Y3N9).
T1 construct: expressed in transfected cells; host or cells: HEK293
T1 sequence (Q9Y3N9 1-320): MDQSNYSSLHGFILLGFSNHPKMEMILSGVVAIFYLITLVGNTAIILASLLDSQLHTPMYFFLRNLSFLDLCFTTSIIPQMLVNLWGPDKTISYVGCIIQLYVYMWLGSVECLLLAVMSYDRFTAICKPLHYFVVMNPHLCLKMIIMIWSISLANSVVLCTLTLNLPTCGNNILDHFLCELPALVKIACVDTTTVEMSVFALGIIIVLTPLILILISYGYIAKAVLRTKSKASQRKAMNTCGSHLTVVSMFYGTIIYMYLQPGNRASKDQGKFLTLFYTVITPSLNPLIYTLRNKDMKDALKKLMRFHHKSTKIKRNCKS
Kind of test: Luciferase reporter assay: suppression of the skatole response of OR2W1 expressed in HEK293 cells. Particulars: test substance 100 μM mixed with 300 μM skatole, HEK293 cells expressing OR2W1; for inhibition at 100 µM: 4 h, read-out: Inhibition rate 2W1. Here is the method:
(§1) A reaction solution having a composition shown in Table 1 was prepared on a clean bench, and left to stand for 15 minutes. The solution was dispensed to each well of a 96-well plate (BD). Subsequently, HEK293 cells (100 μL, 3×10^5 cells/cm^2) were seeded in each well and cultured for 24 hours in an incubator at 37° C. and under 5% CO2 conditions.
(§2) The olfactory receptor expressed in HEK293 cells activates adenylate cyclase with the aid of Gαs present in cells, to thereby increase intracellular cAMP level. In this study, odorant response was measured by a luciferase reporter gene assay which monitored the intracellular cAMP level as the luminescence value derived from a firefly luciferase gene (fluc2P-CRE-hygro). Also, a Renilla luciferase gene fused downstream of a CMV promoter (hRluc-CMV) was also transfected to HEK293 cells as an internal standard to correct errors in gene transfer efficiency and number of cells.
(§3) Cell culturing was performed for four hours in a CO2-incubator, whereby the luciferase gene sufficiently expressed in the cells. Luciferase activity was measured by means of a Dual-Glo™ luciferase assay system (promega) according to an instruction manual thereof. The luminescence value derived from firefly luciferase induced by odorant stimulation was divided by the luminescence value of cells which were not stimulated with odorants. The thus-obtained—called “fold increase”—was employed as an index for response intensity.
(§4) The response inhibition rate of a test substance was calculated as follows. Firstly, luminescence value derived from firefly luciferase induced by stimulation with skatole (X), and luminescence value in cells which expressed the same receptor but were not stimulated with skatole (Y) were determined. By subtracting Y from X, the receptor activity by stimulation with skatole alone (X−Y) was determined. Similarly, the luminescence value induced by stimulation with a mixture of skatole and a test substance (Z) was determined. Through subtracting Y (the luminescence value in cells which expressed the same receptor but were not stimulated with skatole) from Z, the receptor activity (Z−Y) by stimulation with a mixture of skatole and the test substance was obtained. From the thus-obtained receptor activity by stimulation with skatole alone (X−Y) and the receptor activity in the presence of a test material (Z−Y), the response inhibition rate of the test substance was calculated by the following equation: Inhibition rate (%)={1−(Z−Y)/(X−Y)}×100.
(§5) In each case, multiple independent experiments were performed in duplicate, and the average of each experiment was used.
(In a reporter assay the amount or activity of a reporter protein is the signal.)

A further test addresses T2, OR5P3 (Homo sapiens, UniProt Q8WZ94).
T2 construct: expressed in transfected cells; host or cells: HEK293
T2 sequence (Q8WZ94 1-311): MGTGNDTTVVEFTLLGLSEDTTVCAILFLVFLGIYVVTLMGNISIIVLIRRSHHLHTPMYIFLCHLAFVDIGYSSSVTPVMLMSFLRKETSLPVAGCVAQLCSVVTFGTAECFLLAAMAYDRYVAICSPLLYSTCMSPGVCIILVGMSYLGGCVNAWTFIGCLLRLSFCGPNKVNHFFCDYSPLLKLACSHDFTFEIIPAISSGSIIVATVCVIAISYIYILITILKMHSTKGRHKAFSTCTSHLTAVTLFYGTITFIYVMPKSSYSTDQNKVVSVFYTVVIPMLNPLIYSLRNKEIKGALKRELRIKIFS
The experiment in a line: Luciferase reporter assay: suppression of the skatole response of OR5P3 expressed in HEK293 cells. Particulars: test substance 100 μM mixed with 300 μM skatole, HEK293 cells expressing OR5P3. Here is the method:
as §1, §2, §3, §4, §5

The target of a further test is T3, OR8H1 (Homo sapiens, UniProt Q8NGG4).
T3 construct: expressed in transfected cells; host or cells: HEK293
T3 sequence (Q8NGG4 1-311): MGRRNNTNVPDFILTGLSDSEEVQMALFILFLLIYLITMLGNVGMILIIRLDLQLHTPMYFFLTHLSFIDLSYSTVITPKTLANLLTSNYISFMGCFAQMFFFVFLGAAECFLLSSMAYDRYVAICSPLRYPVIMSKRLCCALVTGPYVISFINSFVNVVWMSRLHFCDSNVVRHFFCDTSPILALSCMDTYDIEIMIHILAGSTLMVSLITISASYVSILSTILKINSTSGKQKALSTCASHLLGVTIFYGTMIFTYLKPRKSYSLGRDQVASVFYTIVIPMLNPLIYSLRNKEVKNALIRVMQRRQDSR
Kind of test: Luciferase reporter assay: suppression of the skatole response of OR8H1 expressed in HEK293 cells. The following applies: test substance 100 μM mixed with 300 μM skatole, HEK293 cells expressing OR8H1; for inhibition at 100 µM: 4 h, read-out: Inhibition rate 8H1. How it is done:
as §1, §2, §3, §4, §5

The target in another test is T4, OR5K1 (Homo sapiens, UniProt Q8NHB7).
T4 construct: expressed in transfected cells; host or cells: HEK293
T4 sequence (Q8NHB7 1-308): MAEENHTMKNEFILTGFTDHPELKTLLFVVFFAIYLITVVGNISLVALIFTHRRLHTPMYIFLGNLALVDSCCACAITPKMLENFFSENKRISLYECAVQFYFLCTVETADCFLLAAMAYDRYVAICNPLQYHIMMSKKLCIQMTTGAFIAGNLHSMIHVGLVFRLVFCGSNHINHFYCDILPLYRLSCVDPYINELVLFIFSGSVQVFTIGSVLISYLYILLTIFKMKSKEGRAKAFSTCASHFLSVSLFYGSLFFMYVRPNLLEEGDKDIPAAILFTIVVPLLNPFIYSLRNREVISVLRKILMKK
The experiment in a line: Luciferase reporter assay: suppression of the skatole response of OR5K1 expressed in HEK293 cells. Particulars: test substance 100 μM mixed with 300 μM skatole, HEK293 cells expressing OR5K1; for inhibition at 100 µM: 4 h, read-out: Inhibition rate 5K1. Here is the method: as §1, §2, §3, §4, §5

Each structure is given as a SMILES string.

Broadly, the inhibition is the drop in the measured response relative to a control, in per cent. On to `CC1C/C=C/CCCCCCCCCC(=O)C1` (stereo not shown) [Muscenone delta, (5E)-3-methylcyclopentadec-5-en-1-one], for which the inhibition at 100 µM on OR2W1 is 20 to 50%; on OR8H1, 20 to 50%; on OR5K1, < 20%. The “Inhibition rate 5P3” value at OR5P3 is on record as “C (C >20%)”.
As for `C=CC(C)(O)CCC=C(C)CCC=C(C)C` (stereo not shown) [nerolidol, 3,7,11-Trimethyl-1,6,10-dodecatrien-3-ol], the inhibition at 100 µM is > 80% at OR2W1, < 20% on OR8H1 and < 20% on OR5K1. Besides, the “Inhibition rate 5P3” value at OR5P3 is reported as “A (A >80%)”.
On to `CC/C=C\CC1=C(C)CCC1=O` [cis-jasmone, (Z)-2-(2-Pentenyl)-3-methyl-2-cyclopenten-1-one], for which the inhibition at 100 µM on OR2W1 was 50 to 80%; at OR8H1, 20 to 50%; at OR5K1, < 20%. Further, the “Inhibition rate 5P3” value on OR5P3 is recorded as “C (C >20%)”.
As to `CC(C=O)C1CCCCC1` (stereo not shown) [Pollenal II, 2-Cyclohexylpropanal], the inhibition at 100 µM on OR2W1 was 20 to 50%; on OR8H1 it was < 20%; at OR5K1, 20 to 50%. In addition, on OR5P3, the “Inhibition rate 5P3” value is reported as “C (C >20%)”.
As for `CC(C)c1cccc(C(C)CC=O)c1` (stereo not drawn) [Florhydral, β-Methyl-3-(1-methylethyl)benzenepropanal], the inhibition at 100 µM on OR2W1, at OR8H1 and on OR5K1 was 50 to 80% each time. For the same molecule, the “Inhibition rate 5P3” value at OR5P3 is given as “B (B >50%)”.
`CC(C)CCCC(C)CCO` (stereo not shown) [tetrahydrogenol, 3,7-Dimethyl-1-octanol]: the results for the inhibition at 100 µM on OR2W1, at OR8H1 and at OR5K1 were 20 to 50%, > 80% and 50 to 80%, respectively. Besides, on OR5P3, the “Inhibition rate 5P3” value was “B (B >50%)”.
Regarding `CC=CC(=O)C1C(C)C=CCC1(C)C` (stereo not shown) [δ-damascones, 1-(2,6,6-Trimethyl-3-cyclohexenyl)-2-buten-1-one], the inhibition at 100 µM on OR2W1, on OR8H1 and at OR5K1 was 20 to 50% throughout. The “Inhibition rate 5P3” value on OR5P3 was “C (C >20%)”.
With `CC(C=O)Cc1ccc(C(C)(C)C)cc1` (stereo not drawn) [lilial, p-tert-Butyl-α-methyl hydrocinnamic aldehyde], the “Inhibition rate 2W1” value at OR2W1 is listed as “C (C >20%)”. Further, the “Inhibition rate 5P3” value at OR5P3 is listed as “C (C >20%)”. For the same molecule, at OR8H1, the “Inhibition rate 8H1” value is given as “C (C >20%)”. Besides, the “Inhibition rate 5K1” value at OR5K1 is “C (C >20%)”.
As for `O=C1CCCCCCCCCCCCCCO1` [pentalide, Oxacyclohexadecan-2-one], the inhibition at 100 µM on OR2W1 was 50 to 80%; at OR8H1, > 80%; at OR5K1, 50 to 80%. In addition, the “Inhibition rate 5P3” value at OR5P3 is “B (B >50%)”.
`CC(=O)C1=C(C)C2CC3(C1)C(C)CCC3C2(C)C` (stereo not shown) [acetylcedrene, 1-(2,3,4,7,8,8a-Hexahydro-3,6,8,8-tetramethyl-1H-3a,7-methanoazulen-5-yl)-ethanone]: the inhibition at 100 µM on OR2W1, at OR8H1 and at OR5K1 was > 80% throughout. Besides, the “Inhibition rate 5P3” value on OR5P3 was “A (A >80%)”.
For the molecule `O=C1CCCCCCC=CCCCCCCC1` [globanone, 8-Cyclohexadecen-1-one], the inhibition at 100 µM on OR2W1 was > 80%; on OR8H1, < 20%; at OR5K1 it was < 20%. For the same molecule, at OR5P3, the “Inhibition rate 5P3” value is on record as “C (C >20%)”.
With `CC1(C)CCCC2(C)C1CCC1(C)OCCC12` (stereo not shown) [Ambroxane, Dodecahydro-3a,6,6,9a-tetramethyl-naphtho[2.1-b]furan], the “Inhibition rate 2W1” value at OR2W1 is on record as “A (A >80%)”. For the same molecule, the “Inhibition rate 5P3” value at OR5P3 is given as “B (B >50%)”. Besides, on OR8H1, the “Inhibition rate 8H1” value was “A (A >80%)”. Moreover, the “Inhibition rate 5K1” value on OR5K1 is “C (C >20%)”.
Consider `CCCCCCCC1CCC(=O)O1` (stereo not shown) [γ-undecalactone, 5-Heptyl dihydro-2(3H)-furanone], for which the inhibition at 100 µM at OR2W1, on OR8H1 and at OR5K1 was 50 to 80% each time. At OR5P3, the “Inhibition rate 5P3” value is reported as “B (B >50%)”.
Take `C=CCCC(=O)C1=CCCC(C)(C)C1` [Dinascone, 1-(5,5-Dimethyl-cyclohexen-1-yl)-4-penten-1-one]: the inhibition at 100 µM at OR2W1 was > 80%; at OR8H1, > 80%; on OR5K1, 50 to 80%. At OR5P3, the “Inhibition rate 5P3” value is “B (B >50%)”.
`CC12CCC(C1)C(C)(C)C2O` (stereo not shown) [fenchyl alcohol, 1,3,3-trimethyl-bicyclo[2.2.1]heptan-2-ol]: the inhibition at 100 µM at OR2W1 is 20 to 50%; on OR8H1 it was 20 to 50%; at OR5K1, < 20%. Also, at OR5P3, the “Inhibition rate 5P3” value is on record as “C (C >20%)”.
Take `CC(C)=CCC/C(C)=C/CO` [geraniol, 2-trans-3,7-Dimethyl-2,6-octadien-1-ol]: the figures for the inhibition at 100 µM at OR2W1, at OR8H1 and on OR5K1 were < 20%, 50 to 80% and 20 to 50%, respectively. Besides, on OR5P3, the “Inhibition rate 5P3” value was “B (B >50%)”.
Consider `CCOC(=O)OC1CCCCC1C(C)(C)C` (stereo not shown) [Flormat, Ethyl 2-tert-butyl cyclohexyl carbonate], for which the “Inhibition rate 2W1” value at OR2W1 is “A (A >80%)”. In addition, on OR5P3, the “Inhibition rate 5P3” value is “A (A >80%)”. The “Inhibition rate 8H1” value on OR8H1 is on record as “A (A >80%)”. In addition, on OR5K1, the “Inhibition rate 5K1” value is recorded as “B (B >50%)”.
In the case of `CC1COCc2cc3c(cc21)C(C)(C)C(C)C3(C)C` (stereo not shown) [Galaxolide, 1,3,4,6,7,8-Hexahydro-4,6,6,7,8,8-hexamethylcyclopenta-γ-2-benzopyran], the inhibition at 100 µM on OR2W1 is 50 to 80%; at OR8H1, > 80%; on OR5K1, > 80%. For the same molecule, the “Inhibition rate 5P3” value on OR5P3 was “C (C >20%)”.
Take `CC(CO)CC(C)c1ccccc1` (stereo not shown) [Pumple fleur, 2-Methyl-4-phenylpentanol]: the inhibition at 100 µM at OR2W1 was < 20%; on OR8H1, 50 to 80%; at OR5K1, 20 to 50%. Besides, at OR5P3, the “Inhibition rate 5P3” value is listed as “A (A >80%)”.
